The subject of data set [1] is Respiratory Syncytial Virus. Description: microbe, parasite or virus in culture. It is filed as cell-based. The following applies: human respiratory syncytial virus; pEC50 (−log of EC50 when expressed in molar units), protection against RSV cytopathology. Summed up:
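HeLa cells infected with ~100 TCID50 RSV in Eagle's Basal Medium with 5% FCS, five-fold compound dilutions, 37° C, 5% CO2 for 7 days. Viability by MTT (A540 minus A690); EC50 for protection against cytopathic effect and CC50 from mock-infected wells, SI = CC50/EC50.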

For orientation: EC50 means the concentration giving half of the maximal effect. A lower EC50 goes with greater potency. A word on the melting point: it is the temperature, or range, at which the solid turns liquid. `Cc1ccc(CCCO)c(NCc2ccc3nc(NCCCN4CCOCC4)n(Cc4nc(C)c(C)nc4C)c3c2)c1` [Compound 255, 3-(4-Methyl-2-{[2-(3-morpholin-4-yl-propylamino)-3-(3,5,6-trimethyl-pyrazin-2-ylmethyl)-3H-benzoimidazol-5-ylmethyl]-amino}-phenyl)-propan-1-ol] yielded a melting point of 120 °C. This compound also showed an EC50 in data set [1] of 25.1 nM.
For `Cc1cc(C)cc(N(CCCC(N)=O)Cc2ccc3nc(NCCCN4CCOCC4)n(Cc4cccc(Br)n4)c3c2)c1` [Compound 261, 4-[[3-(6-Bromo-pyridin-2-ylmethyl)-2-(3-morpholin-4-yl-propyl-amino)-3H-benzoimidazol-5-ylmethyl]-(3,5-dimethyl-phenyl)-amino]-butyramide] the same measures were 82 °C and 31.6 nM.
The compound `Cc1ccc(CCCO)c(NCc2ccc3nc(NCCCN4CCOCC4)n(Cc4cccc(Br)n4)c3c2)c1` [Compound 267, 3-(2-{[3-(6-Bromo-pyridin-2-ylmethyl)-2-(3-morpholin-4-yl-propylamino)-3H-benzoimidazol-5-ylmethyl]-amino}-4-methyl-phenyl)-propan-1-ol] returned a melting point of 141 °C. The compound further had an EC50 in data set [1] of 50.1 nM.

Values taken from patent US7449463B2, “Morpholinyl containing benzimidazoles as inhibitors of respiratory syncytial virus replication” (Tibotec Pharmaceuticals Ltd., priority 2003, dated 2008).
